Results published in patent US20150299188A1, “HETEROCYCLIC COMPOUND” (priority 2012, published 2015).

test system: FLAP (5-lipoxygenase activating protein); experiment: In vitro binding test: displacement of [3H]-7-chloro-3-(5-((3-fluoropyridin-2-yl)methoxy)-2-methylphenyl)-3,4-dihydroquinazolin-2(1H)-one from Sf9 microsome fractions; parameters: species or system human and mouse; conditions: Sf9 microsome fractions expressing FLAP; 100% = radioligand binding with 10 μM sodium 3-(3-(tert-butylsulfanyl)-1-(4-chlorobenzyl)-5-isopropyl-1H-indol-2-yl)-2,2-dimethylpropanoate, 0% = DMSO; test compound concentration not given
In short: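 Sf9 microsomes expressing human or mouse FLAP (2 μg/mL) preincubated with compound 10 min at room temperature, then 120 nM tritiated quinazolinone ligand added for 60 min; buffer 100 mM Tris-HCl pH 7.5 with NaCl, EDTA, DTT, glycerol, Tween20. Bound ligand filtered and counted by scintillation; 10 μM indole propanoate defines 100% inhibition, DMSO 0%.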

| SMILES | inhibitory rate (%) |
| --- | --- |
| O=C(O)c1cc2c(c(C3CC3)n1)CN(c1cc3c(cc1Cl)CCC(c1ncccc1F)O3)C(=O)N2 (stereo not drawn) [Example 71, 3-(6-chloro-2-(3-fluoropyridin-2-yl)-3,4-dihydro-2H-chromen-7-yl)-5-cyclopropyl-2-oxo-1,2,3,4-tetrahydropyrido[4,3-d]pyrimidine-7-carboxylic acid] | 107% |
| O=C(NCC(F)(F)F)c1cc2c(c(C3CC3)n1)CN(c1cc3c(cc1Cl)CCC(c1ncccc1F)O3)C(=O)N2 (stereo not drawn) [Example 149, 3-(6-chloro-2-(3-fluoropyridin-2-yl)-3,4-dihydro-2H-chromen-7-yl)-5-cyclopropyl-2-oxo-N-(2,2,2-trifluoroethyl)-1,2,3,4-tetrahydropyrido[4,3-d]pyrimidine-7-carboxamide] | 107% |
| Cc1cc2c(cc1N1Cc3c(cc(-n4cc(C(N)=O)cn4)nc3C3CC3)NC1=O)OC(c1ncccc1F)CC2 (stereo not drawn) [Example 135, 1-(5-cyclopropyl-3-(2-(3-fluoropyridin-2-yl)-6-methyl-3,4-dihydro-2H-chromen-7-yl)-2-oxo-1,2,3,4-tetrahydropyrido[4,3-d]pyrimidin-7-yl)-1H-pyrazole-4-carboxamide] | 104% |
| O=C1Nc2ccnc(C3CC3)c2CN1c1cc2c(cc1Cl)CCC(c1ncccc1F)O2 (stereo not drawn) [Example 39, 3-(6-chloro-2-(3-fluoropyridin-2-yl)-3,4-dihydro-2H-chromen-7-yl)-5-cyclopropyl-3,4-dihydropyrido[4,3-d]pyrimidin-2(1H)-one] | 94% |
| O=C(NCC(F)F)c1cc2c(c(C3CC3)n1)CN(c1cc3c(cc1Cl)CCC(c1ncccc1F)O3)C(=O)N2 (stereo not drawn) [Example 147, 3-(6-chloro-2-(3-fluoropyridin-2-yl)-3,4-dihydro-2H-chromen-7-yl)-5-cyclopropyl-N-(2,2-difluoroethyl)-2-oxo-1,2,3,4-tetrahydropyrido[4,3-d]pyrimidine-7-carboxamide] | 104% |
| COCCOc1ccc2c(=O)n(-c3cc(OCc4ncccc4F)ccc3C)c(=O)n(CCOC)c2c1 [Example 352, 3-(5-((3-fluoropyridin-2-yl)methoxy)-2-methylphenyl)-7-(2-methoxyethoxy)-1-(2-methoxyethyl)quinazoline-2,4(1H,3H)-dione] | 107% |
| CCc1cc2c(c(C3CC3)n1)CN(c1cc3c(cc1C)CCC(c1ncccc1F)O3)C(=O)N2 (stereo not drawn) [Example 96, 5-cyclopropyl-7-ethyl-3-(2-(3-fluoropyridin-2-yl)-6-methyl-3,4-dihydro-2H-chromen-7-yl)-3,4-dihydropyrido[4,3-d]pyrimidin-2(1H)-one] | 84% |
| Cc1ccc(OCc2ncccc2F)cc1-n1c(=O)[nH]c2cc([N+](=O)[O-])ccc2c1=O [Example 341, 3-(5-((3-fluoropyridin-2-yl)methoxy)-2-methylphenyl)-7-nitroquinazoline-2,4(1H,3H)-dione] | 102% |
| O=C1Nc2cc(Cl)nc(C3CC3)c2CN1c1cc2c(cc1Cl)CCC(c1ncccc1F)O2 (stereo not drawn) [Example 72, 7-chloro-3-(6-chloro-2-(3-fluoropyridin-2-yl)-3,4-dihydro-2H-chromen-7-yl)-5-cyclopropyl-3,4-dihydropyrido[4,3-d]pyrimidin-2(1H)-one] | 104% |
| Cc1ccc(OCc2c(F)cccc2F)cc1N1Cc2ccc(C(C)(C)O)cc2NC1=O [Example 180, 3-(5-((2,6-difluorobenzyl)oxy)-2-methylphenyl)-7-(2-hydroxypropan-2-yl)-3,4-dihydroquinazolin-2(1H)-one] | 81% |
| Cc1ccc(OCc2ncccc2Cl)cc1N1Cc2nn(C)cc2NC1=O [Example 265, 6-(5-((3-chloropyridin-2-yl)methoxy)-2-methylphenyl)-2-methyl-2,4,6,7-tetrahydro-5H-pyrazolo[4,3-d]pyrimidin-5-one] | 82% |
| Cc1cc2c(cc1N1Cc3c(cc(Cl)nc3Cl)NC1=O)OC(c1ncccc1F)CC2 (stereo not drawn) [Example 41, 5,7-dichloro-3-(2-(3-fluoropyridin-2-yl)-6-methyl-3,4-dihydro-2H-chromen-7-yl)-3,4-dihydropyrido[4,3-d]pyrimidin-2(1H)-one] | 108% |

Other lines, results leading:

| inhibitory rate (%) | SMILES |
| --- | --- |
| 108% | Cc1ccc(OCc2ncccc2F)cc1N1Cc2ccc(C(=O)NCC(F)(F)F)cc2NC1=O [Example 303, 3-(5-((3-fluoropyridin-2-yl)methoxy)-2-methylphenyl)-2-oxo-N-(2,2,2-trifluoroethyl)-1,2,3,4-tetrahydroquinazoline-7-carboxamide] |
| 107% | Cc1n[nH]c(-c2cc3c(c(C4CC4)n2)CN(c2cc4c(cc2Cl)CCC(c2ncccc2F)O4)C(=O)N3)n1 (stereo not drawn) [Example 119, 3-(6-chloro-2-(3-fluoropyridin-2-yl)-3,4-dihydro-2H-chromen-7-yl)-5-cyclopropyl-7-(3-methyl-1H-1,2,4-triazol-5-yl)-3,4-dihydropyrido[4,3-d]pyrimidin-2(1H)-one] |
| 115% | Cc1cc2c(cc1N1Cc3c(cc(C4CC4)nc3C3CC3)NC1=O)OC(c1ncccc1F)CC2 (stereo not drawn) [Example 52, 5,7-dicyclopropyl-3-(2-(3-fluoropyridin-2-yl)-6-methyl-3,4-dihydro-2H-chromen-7-yl)-3,4-dihydropyrido[4,3-d]pyrimidin-2(1H)-one] |
| 105% | Cc1cc2c(cc1N1Cc3c(Cl)cnc(-c4c(C)nn(C)c4C)c3NC1=O)OC(c1ncccc1F)CC2 (single isomer, unassigned; (+)) [Example 14, (+)-5-chloro-3-(2-(3-fluoropyridin-2-yl)-6-methyl-3,4-dihydro-2H-chromen-7-yl)-8-(1,3,5-trimethyl-1H-pyrazol-4-yl)-3,4-dihydropyrido[3,4-d]pyrimidin-2(1H)-one] |
| 94% | COC(=O)c1ccc2c(c1)NC(=O)N(c1cc(OCc3cccc(F)c3F)ccc1C)C2 [Example 198, methyl 3-(5-((2,3-difluorobenzyl)oxy)-2-methylphenyl)-2-oxo-1,2,3,4-tetrahydroquinazoline-7-carboxylate] |
| 102% | O=C1Nc2cc(OC(F)F)nc(C3CC3)c2CN1c1cc2c(cc1Cl)CC[C@H](c1ncccc1F)O2 [Example 19, 3-((2R)-6-chloro-2-(3-fluoropyridin-2-yl)-3,4-dihydro-2H-chromen-7-yl)-5-cyclopropyl-7-(difluoromethoxy)-3,4-dihydropyrido[4,3-d]pyrimidin-2(1H)-one] |
| 106% | CC(C)(O)c1ccc2c(c1)NC(=O)N(c1cc(OCc3c(F)cccc3F)ccc1CCc1ccccc1)C2 [Example 260, 3-(5-((2,6-difluorobenzyl)oxy)-2-(2-phenylethyl)phenyl)-7-(2-hydroxypropan-2-yl)-3,4-dihydroquinazolin-2(1H)-one] |
| 108% | O=c1[nH]c2ccc(Br)c(Cl)c2c(=O)n1-c1cc(OCc2ncccc2F)ccc1Cl [Example 368, 6-bromo-5-chloro-3-(2-chloro-5-((3-fluoropyridin-2-yl)methoxy)phenyl)quinazoline-2,4(1H,3H)-dione] |
| 103% | COC(=O)c1ccc2c(=O)n(-c3cc(OCc4c(F)cccc4F)ccc3C)c(=O)[nH]c2c1 [Example 335, methyl 3-(5-((2,6-difluorobenzyl)oxy)-2-methylphenyl)-2,4-dioxo-1,2,3,4-tetrahydroquinazoline-7-carboxylate] |
| 103% | O=C1Nc2ccccc2CN1c1cc(OCc2ncccc2F)ccc1Cl [Example 231, 3-(2-chloro-5-((3-fluoropyridin-2-yl)methoxy)phenyl)-3,4-dihydroquinazolin-2(1H)-one] |
| 87% | Cc1ccc(OCc2c(F)cccc2F)cc1N1Cc2cccc(C(C)(C)O)c2NC1=O [Example 217, 3-(5-((2,6-difluorobenzyl)oxy)-2-methylphenyl)-8-(2-hydroxypropan-2-yl)-3,4-dihydroquinazolin-2(1H)-one] |
| 51% | Cc1ccc(OCc2cccs2)cc1N1Cc2ccccc2NC1=O [Example 175, 3-(2-methyl-5-(2-thienylmethoxyl)phenyl)-3,4-dihydroquinazolin-2(1H)-one] |
| 104% | O=C1Nc2cc(-c3noc(=S)[nH]3)nc(C3CC3)c2CN1c1cc2c(cc1Cl)CCC(c1ncccc1F)O2 (stereo not drawn) [Example 118, 3-(6-chloro-2-(3-fluoropyridin-2-yl)-3,4-dihydro-2H-chromen-7-yl)-5-cyclopropyl-7-(5-thioxo-4,5-dihydro-1,2,4-oxadiazol-3-yl)-3,4-dihydropyrido[4,3-d]pyrimidin-2(1H)-one] |
| 101% | Cc1cc2c(cc1N1Cc3c(Cl)cnc(-c4c(C)nn(C)c4C)c3NC1=O)OC(c1ncccc1F)CC2 (stereo not drawn) [Example 13, 5-chloro-3-(2-(3-fluoropyridin-2-yl)-6-methyl-3,4-dihydro-2H-chromen-7-yl)-8-(1,3,5-trimethyl-1H-pyrazol-4-yl)-3,4-dihydropyrido[3,4-d]pyrimidin-2(1H)-one] |
| 111% | CC(=O)c1nccc2c1CN(c1cc3c(cc1C)CCC(c1ncccc1F)O3)C(=O)N2 (stereo not drawn) [Example 34, 5-acetyl-3-(2-(3-fluoropyridin-2-yl)-6-methyl-3,4-dihydro-2H-chromen-7-yl)-3,4-dihydropyrido[4,3-d]pyrimidin-2(1H)-one] |
| 101% | Cn1cc2c(n1)CN(c1cc(OCc3ncccc3F)ccc1Br)C(=O)N2 [Example 264, 6-(2-bromo-5-((3-fluoropyridin-2-yl)methoxy)phenyl)-2-methyl-2,4,6,7-tetrahydro-5H-pyrazolo[4,3-d]pyrimidin-5-one] |
| 100% | COC(=O)c1ccc2c(c1)NC(=O)N(c1cc(OCc3nccs3)ccc1C)C2 [Example 237, methyl 3-(2-methyl-5-(1,3-thiazol-2-ylmethoxy)phenyl)-2-oxo-1,2,3,4-tetrahydroquinazoline-7-carboxylate] |
| 100% | O=C1Nc2ccccc2CN1c1cc(OCc2ncccn2)ccc1Br [Example 267, 3-(2-bromo-5-(pyrimidin-2-ylmethoxy)phenyl)-3,4-dihydroquinazolin-2(1H)-one] |
